Experimental data: US9724355B2, “Fulvestrant compositions and methods of use” (SHIMODA BIOTECH (PTY) LTD, priority 2010, dated 2017)

Test: Fulvestrant aqueous solubility in the presence and absence of cyclodextrins (excess drug, shaken 24 h, filtered, HPLC)
Type: physicochemical
Settings: for Quantity of Fulvestrant Diluted Run 2 / Average Concentration / Quantity of Fulvestrant Diluted Run 1: diluted sample; for True Fulvestrant Concentration: 22° C., 24 h
Experimental: The HPLC system used for the chromatographic determination of fulvestrant consisted of a Waters 600E quaternary gradient pump, a Waters 717plus WISP auto-sampler and a Waters 2487 Dual A, Absorbance detector. Separation was performed using a Phenomenex Luna C18 column (250×4.6 mm; 5 urn) (Phenomenex, Torrance, Calif.) (supplied by Separations, South Africa) and a mobile phase consisting of 50% MeCN:22.5% ddH2O :27.5% MeOH. The mobile phase was degassed and filtered prior to use. […] Sample run times were 15 minutes. The UV detector wavelength was set to 280 nm.
1 mL of each of the following aqueous solutions was prepared containing 0; 25; 50; 75 and 100 mg/mL ACD in ddHiO. Excess fulvestrant was added to each of these solutions and the samples were shaken for 24 hours on an orbital shaker at 200 rpm and at 22° C. room temperature. Excess fulvestrant was present in all samples at all times. After 24-hours, the samples were filtered through 0.45 μm syringe tip filters, diluted according to requirements and assayed by HPLC.
1 mL of each of the following aqueous solutions was prepared containing 0; 5; 7.5; 10 and 15 mg/mL BCD in ddH2O. Excess fulvestrant was added to each of these solutions and the samples were shaken for 24 hours on an orbital shaker at 200 rpm and at 22° C. room temperature. Excess fulvestrant was present in all samples at all times. After 24-hours, the samples were filtered through 0.45 μm syringe tip filters, diluted according to requirements and assayed by HPLC.
1 mL of each of the following aqueous solutions was prepared containing 0; 50; 100; 150; 200; 250; 300; 350 and 400 mg/mL MBCD in ddH2O. Excess fulvestrant was added to each of these solutions and the samples were shaken for 24 hours on an orbital shaker at 200 rpm and at 22° C. room temperature. Excess fulvestrant was present in all samples at all times. After 24-hours, the samples were filtered through 0.45 μm syringe tip filters, diluted according to requirements and assayed by HPLC.
1 mL of each of the following aqueous solutions was prepared containing 0; 50; 100; 150; 200; 250; 300; 350 and 400 mg/mL HPBCD in ddH2O. Excess fulvestrant was added to each of these solutions and the samples were shaken for 24 hours on an orbital shaker at 200 rpm and at 22° C. room temperature. Excess fulvestrant was present in all samples at all times. After 24-hours, the samples were filtered through 0.45 μm syringe tip filters, diluted according to requirements and assayed by HPLC.
1 mL of each of the following aqueous solutions was prepared containing 0; 50; 100; 150; 200; 250; 300; 350 and 400 mg/mL SBEBCD in ddH2O. Excess fulvestrant was added to each of these solutions and the samples were shaken for 24 hours on an orbital shaker at 200 rpm and at 22° C. room temperature. Excess fulvestrant was present in all samples at all times. After 24-hours, the samples were filtered through 0.45 μm syringe tip filters, diluted according to requirements and assayed by HPLC.
1 mL of each of the following aqueous solutions was prepared containing 0; 50; 100; 150; and 200 mg/mL GCD in ddHO. Excess fulvestrant was added to each of these solutions and the samples were shaken for 24 hours on an orbital shaker at 200 rpm and at 22° C. room temperature. Excess fulvestrant was present in all samples at all times. After 24-hours, the samples were filtered through 0.45 μm syringe tip filters, diluted according to requirements and assayed by HPLC.
1 mL of each of the following aqueous solutions was prepared containing 0; 50; 100; 150; 200; 250; 300; 350 and 400 mg/mL HPGCD in ddH2O. Excess fulvestrant was added to each of these solutions and the samples were shaken for 24 hours on an orbital shaker at 200 rpm and at 22° C. room temperature. Excess fulvestrant was present in all samples at all times. After 24-hours, the samples were filtered through 0.45 μm syringe tip filters, diluted according to requirements and assayed by HPLC.

C[C@]12CC[C@@H]3c4ccc(O)cc4C[C@@H](CCCCCCCCC[S+]([O-])CCCC(F)(F)C(F)(F)F)[C@H]3[C@@H]1CC[C@@H]2O (stereo partly drawn) [Fulvestrant, 7-alpha-[9-(4,4,5,5,5-pentafluoropentylsulphinyl)nonyl]estra-1,3,5-(10)-triene-3,17-beta-diol]
Quantity of Fulvestrant Diluted Run 2 (150 mg/mL HPBCD): 93.50 µg/mL
True Fulvestrant Concentration (150 mg/mL HPGCD in ddH2O): 0.203 mg/mL
Average Concentration (150 mg/mL HPGCD): 220.81 µg/mL
Quantity of Fulvestrant Diluted Run 1 (150 mg/mL HPGCD): 220.67 µg/mL
Quantity of Fulvestrant Diluted Run 2 (150 mg/mL HPGCD): 220.94 µg/mL
True Fulvestrant Concentration (150 mg/mL MBCD in ddH2O): 6.744 mg/mL
Average Concentration (150 mg/mL MBCD): 67.44 µg/mL
Quantity of Fulvestrant Diluted Run 1 (150 mg/mL MBCD): 67.40 µg/mL
Quantity of Fulvestrant Diluted Run 2 (150 mg/mL MBCD): 67.47 µg/mL
True Fulvestrant Concentration (150 mg/mL SBEBCD in ddH2O): 0.273 mg/mL
Average Concentration (150 mg/mL SBEBCD): 272.92 µg/mL
Quantity of Fulvestrant Diluted Run 1 (150 mg/mL SBEBCD): 273.01 µg/mL
Quantity of Fulvestrant Diluted Run 2 (150 mg/mL SBEBCD): 272.83 µg/mL
True Fulvestrant Concentration (200 mg/mL GCD in ddH2O): <0.010 mg/mL
Average Concentration (200 mg/mL GCD): <10.00 µg/mL
Quantity of Fulvestrant Diluted Run 1 (200 mg/mL GCD): <10.000 µg/mL
Quantity of Fulvestrant Diluted Run 2 (200 mg/mL GCD): <10.000 µg/mL
True Fulvestrant Concentration (200 mg/mL HPBCD in ddH2O): 1.563 mg/mL
Average Concentration (200 mg/mL HPBCD): 99.30 µg/mL
Quantity of Fulvestrant Diluted Run 1 (200 mg/mL HPBCD): 156.30 µg/mL
Quantity of Fulvestrant Diluted Run 2 (200 mg/mL HPBCD): 42.30 µg/mL
True Fulvestrant Concentration (200 mg/mL HPGCD in ddH2O): 0.300 mg/mL
Average Concentration (200 mg/mL HPGCD): 334.71 µg/mL
Quantity of Fulvestrant Diluted Run 1 (200 mg/mL HPGCD): 334.75 µg/mL
Quantity of Fulvestrant Diluted Run 2 (200 mg/mL HPGCD): 334.66 µg/mL
True Fulvestrant Concentration (200 mg/mL MBCD in ddH2O): 10.694 mg/mL
Average Concentration (200 mg/mL MBCD): 106.94 µg/mL
Quantity of Fulvestrant Diluted Run 1 (200 mg/mL MBCD): 106.87 µg/mL
Quantity of Fulvestrant Diluted Run 2 (200 mg/mL MBCD): 107.01 µg/mL
True Fulvestrant Concentration (200 mg/mL SBEBCD in ddH2O): 0.399 mg/mL
Average Concentration (200 mg/mL SBEBCD): 398.81 µg/mL
Quantity of Fulvestrant Diluted Run 1 (200 mg/mL SBEBCD): 398.52 µg/mL
Quantity of Fulvestrant Diluted Run 2 (200 mg/mL SBEBCD): 399.09 µg/mL
True Fulvestrant Concentration (250 mg/mL HPBCD in ddH2O): 2.377 mg/mL
Average Concentration (250 mg/mL HPBCD): 118.84 µg/mL
Quantity of Fulvestrant Diluted Run 1 (250 mg/mL HPBCD): 118.71 µg/mL
Quantity of Fulvestrant Diluted Run 2 (250 mg/mL HPBCD): 118.97 µg/mL
True Fulvestrant Concentration (250 mg/mL HPGCD in ddH2O): 0.215 mg/mL
Average Concentration (250 mg/mL HPGCD): 473.84 µg/mL
Quantity of Fulvestrant Diluted Run 1 (250 mg/mL HPGCD): 474.68 µg/mL
Quantity of Fulvestrant Diluted Run 2 (250 mg/mL HPGCD): 472.99 µg/mL
True Fulvestrant Concentration (250 mg/mL MBCD in ddH2O): 17.429 mg/mL
Average Concentration (250 mg/mL MBCD): 174.29 µg/mL
Quantity of Fulvestrant Diluted Run 1 (250 mg/mL MBCD): 174.30 µg/mL
Quantity of Fulvestrant Diluted Run 2 (250 mg/mL MBCD): 174.28 µg/mL
True Fulvestrant Concentration (250 mg/mL SBEBCD in ddH2O): 0.609 mg/mL
Average Concentration (250 mg/mL SBEBCD): 304.74 µg/mL
Quantity of Fulvestrant Diluted Run 1 (250 mg/mL SBEBCD): 304.32 µg/mL
Quantity of Fulvestrant Diluted Run 2 (250 mg/mL SBEBCD): 305.15 µg/mL
True Fulvestrant Concentration (300 mg/mL HPBCD in ddH2O): 3.312 mg/mL
Average Concentration (300 mg/mL HPBCD): 165.62 µg/mL
